From patent US20040022777A1, “Fragments and antagonists of heat shock protein 60” (priority 1999, published 2004) come the findings set out here.

Ends that are not written are not given here.

Assay type in all cases: cell-based, mouse
Data set [1] deals with bone marrow-derived macrophages of C3H/HeJ mice (mutant Toll-like receptor 4). Kind of data set: TNFα production by bone marrow-derived macrophages with mutant Tlr4 (sandwich ELISA). Conditions: C3H/HeJ macrophages; LPS 10 ng/ml, hsp60 10 μg/ml, oligonucleotides 30 μg/ml; 6 h. Background: ELISA stands for enzyme-linked immunosorbent assay.
The test system is the same in data set [2]. The data set is described as follows: NO (nitrite) production by bone marrow-derived macrophages with mutant Tlr4 (Griess reaction). Conditions: Tlr4 wild-type compared with Tlr4 defective macrophages; oligonucleotide 30 μg/ml; 24 h.
The test system of data set [3] is hsp60 induced TNFα and Nitric oxide (NO) secretion in J774 cells. Kind of data set: Screening of 10-mer peptides for inhibition of hsp60 induced (and CpG induced) TNFα secretion. The following applies: crude peptides at a dilution of 1:10. The method, then: The crude peptides were re-suspended in 500 μl water and tested at a dilution of 1:10, for inhibition of hsp60 induced TNFα and Nitric oxide (NO) secretion in J774 cells (as described in example no. 1 of the application). Selected peptides were tested (in an equivalent assay) also for inhibition of CpG induced TNFα secretion. CpG is a non-specific immunostimulatory oligonucleotide motif with the sequence: […]. CpG DNA: a novel immunomodulator Trends Microbiol 1999; 7:64-5). CpG stimulates J774 cells to produce TNFα in a mechanism different to that used by hsp60 and thus serves as a negative control for non-selective inhibition of TNF secretion (which is not mediated through specific inhibition of hsp60). […] The peptides in this chart were selected for re-screening based on the activity found in screening all the 192 peptides synthesized. The results are presented as percent inhibition of TNF-secretion in response to induction with hsp60 or CpG, and are the average of two repeats.

Data set [4] relates to bone marrow-derived macrophages of C57BL/6 and C3H/HeN mice. Kind of data set: TNFα production by bone marrow-derived macrophages with wild-type Tlr4 (sandwich ELISA). The following applies: C57BL/6 and C3H/HeN macrophages; LPS 10 ng/ml, hsp60 10 μg/ml; 6 h.
Data set [5] has the same test system. Kind of data set: NO (nitrite) production by bone marrow-derived macrophages with wild-type Tlr4 (Griess reaction). The following applies: C57BL/6 and C3H/HeN macrophages; LPS 10 ng/ml, hsp60 10 μg/ml; 24 h. In general terms: Griess reagent forms a coloured azo dye with nitrite.

Consider “5′-ACCGATAACGTTGCCGGTGACG-3′ (DNA ACCGATAACGTTGCCGGTGACG; chemistry not given here) [Pal+, immunostimulatory oligonucleotide containing a CpG motif]”, for which the TNFα response entry in data set [1] was “less stimulatory”. The “NO response / NO formation in the two macrophage types” value (“NO response / NO formation” for short) in data set [2] was “failed to induce NO formation”.

With “5′-TCCATGACGTTCCTGATGCT-3′ (DNA TCCATGACGTTCCTGATGCT; chemistry not given here) [ODN1668, immunostimulatory oligonucleotide containing a CpG motif]”, in data set [1], the TNFα response entry was “strong TNFα response”. In data set [2], the “NO response / NO formation” value is reported as “very similar NO response”.

For “5′-TCCATGAGCTTCCTGATGCT -3′ (DNA TCCATGAGCTTCCTGATGCT; chemistry not given here) [ODN1720, non-stimulatory oligonucleotide lacking a CpG motif]”, the TNFα response entry in data set [1] was “did not provoke a response”. For the same substance, the “NO response / NO formation” value in data set [2] is reported as “failed to induce NO formation”. With KVGGTSDVEV [Peptide No. 175], the “inhibition of hsp60 induced TNFα secretion, activity and specificity versus CpG induced TNFα secretion” value in data set [3] is listed as “hsp60-inhibiting”.

“Lipopolysaccharide [LPS, reference compound]”: the TNFα secretion entry in data set [4] was “rapid secretion of large amounts of TNFα”. For the same substance, the TNFα response result in data set [1] was “no response”. Moreover, the NO production result in data set [5] was “responded”. On to VLKVGGTSDV [Peptide No. 173], for which the “inhibition of hsp60 induced TNFα secretion, activity and specificity versus CpG induced TNFα secretion” value in data set [3] is on record as “hsp60-inhibiting”.
